Experimental findings from article PMC7619385 (ACS infectious diseases, 2025) are described below.

For one assay, the target named is NLuc::LmxCLK1 (Leishmania mexicana, UniProt E9AMP2). The assay is described as follows: In-cell BRET target engagement in intracellular amastigotes expressing NLuc::LmxCLK1. Format: cell-based. The protocol: (§1) L. mexicana (strain MNYC/BZ/62/M379) promastigotes were cultivated in medium 199 (M199) (Earle’s Salts - Gibco) supplemented with 10% (v/v) heat-inactivated fetal calf serum (HIFCS – Cultilab) and 1% Penicillin/Streptomycin solution (Sigma-Aldrich) at 26 °C. Phenotypic drug response assays in null mutant and point-mutation mutant lines were performed in HOMEM supplemented with 10% (v/v) heat-inactivated fetal calf serum (HIFCS – Gibco). THP-1 monocytes were differentiated in adherent macrophages with 50 ng of PMA for 72 h at 37 °C and 5% CO2 before infection with stationary phase promastigotes (ratio 10 promastigotes:1 macrophage) for 6 h, followed by washing to remove non-internalized Leishmania. Infected macrophages were incubated at 34 °C and 5% CO2 for 48 h in RPMI (Gibco) supplemented with 10% HIFCS and 1% Penicillin/Streptomycin solution.
in vitro BRET used purified NLuc-LmxCLK1 in Kinase Buffer (50 mM HEPES, 1 mM EGTA, 10 mM MgCl^2, 2 mM DTT and 0.01% Tween-20) aliquoted into 96-well plates (Greiner #655904). In cell BRET assays used engineered L. mexicana (promastigotes or intramacrophage amastigotes) expressing NLuc-LmxCLK1 in cell media aliquoted into 96-well plates (Greiner, #655083). For tracer titration experiments, BRET probes were serially diluted from 100% DMSO stocks – first in 100% DMSO to 100x final assay concentration, and then in Tracer Dilution Buffer (TDB - 12.5 mM HEPES, pH 7.5; 31.25% PEG 400) to 20x the final assay concentration. Serially diluted probes (5 µL) were added to 85 µL of cells in culture media or 85 µL of purified protein. Final well volumes were adjusted to 100 µL with sterile Opti-MEM™ I Reduced Serum Medium (Thermo-Scientific) – for wells containing cells; or Kinase Buffer - for wells containing purified protein. For tracer displacement assays, samples were prepared as above, but final volume was brought to 100 µL by addition of vehicle or serially-diluted test compounds. Final DMSO concentration in these assays was 1%. Plates were incubated for 30 min at 25 °C (purified protein and promastigotes) or 34 °C (intramacrophage amastigotes), and 50 µL of Promega cocktail containing furimazine and NLuc extracellular inhibitor (catalog #N2161) were added to each well. Light emissions at 460+10 nm (BRET donor) and at 610+20 nm (BRET acceptor) were sequentially recorded (integration time = 0.5 s, gain = 3600) using a luminometer (BMG LABTECH Clariostar or Biotek Synergy HT). BRET values are reported in milli-BRET (mBRET) units (mBU), obtained by dividing the acceptor luminescence by the donor luminescence and multiplying the result by a factor of 1,000. BRET values were converted to blank-corrected probe occupancies (%) according to equation [1]: (1) Probeoccupancy(%)=X−Z/Y−Z×100 where X = mBRET value in the presence of the test compound and the probe, Y = mBRET value in the presence of probe only, and Z = mBRET value in the absence of probe and test compound.

In assay [1] the test system is L. mexicana promastigotes. The assay is described as follows: Promastigote viability (Alamar Blue/resazurin). Format: cell-based. The note with it: Leishmania mexicana. As for the experimental part: Next, we evaluated GZD824 ability to reduce the viability of L. mexicana promastigotes by monitoring the reduction of resazurin (Alamar Blue).[31]
as §1
For evaluation of drug effect on promastigote and uninfected macrophage viability, cells were cultivated in the presence of test compounds for 24 h and incubated with 10% AlamarBlue™ Cell Viability Reagent (ThermoFisher) for 24 h before measuring fluorescence at λex 540 nm/λem 590 nm. Untreated cells (1% DMSO) were set as 100 % viable cells. Intracellular amastigotes were treated with compounds for 48 h. Slides with paraformaldehyde-fixed and DAPI-stained cells were imaged on a Zeiss AxioImager microscope – at least 200 macrophages per drug concentration and DMSO control. Experiments were performed in duplicate. The total number of amastigotes was normalized by the number of macrophages counted. For EC50 determination, the data was fitted to the sigmoidal dose-response (variable slope) equation in GraphPad Prism (v.9.1.0).

Setting [2] is: 48 h compound exposure, read-out: EC50 promastigote viability.

Like-named read-outs stand apart in the source and are kept apart here.

Sequence of NLuc::LmxCLK1 (E9AMP2 entry or part of it): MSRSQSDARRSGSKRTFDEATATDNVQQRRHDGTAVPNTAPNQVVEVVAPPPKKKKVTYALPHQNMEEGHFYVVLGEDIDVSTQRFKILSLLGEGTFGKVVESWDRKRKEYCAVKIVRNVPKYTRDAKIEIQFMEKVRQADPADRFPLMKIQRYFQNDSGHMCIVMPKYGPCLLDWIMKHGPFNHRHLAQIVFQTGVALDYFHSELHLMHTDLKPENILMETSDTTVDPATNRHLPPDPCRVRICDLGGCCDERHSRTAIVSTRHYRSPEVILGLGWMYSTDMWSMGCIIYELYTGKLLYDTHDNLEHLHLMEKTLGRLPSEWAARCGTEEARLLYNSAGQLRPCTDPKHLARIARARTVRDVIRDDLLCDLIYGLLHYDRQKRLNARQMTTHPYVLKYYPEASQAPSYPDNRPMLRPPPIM

Turning to `Cc1ccc(C(=O)Nc2ccc(CN3CCN(C)CC3)c(C(F)(F)F)c2)cc1C#Cc1cnc2[nH]ncc2c1` [GZD824], at NLuc::LmxCLK1, the IC50 was 13 µM. For the same compound, the “Lower potency in intracellular amastigotes” value on NLuc::LmxCLK1 (tracer displacement, versus promastigotes) is reported as ~ 3 fold. In addition, the EC50 in assay [1] (setting [2]) amounted to 33 µM.

For `C=CC(=O)Nc1cccc(Sc2nc(Nc3ccc(N4CCN(C)CC4)cc3)ncc2Cl)c1` [WZ8040], at NLuc::LmxCLK1, the IC50 is 7 µM. The EC50 turned out to be 7.9 µM in assay [1] (setting [2]) and 5.6 µM in assay [1] (wild-type comparator of the overexpression experiment (Figure 6D), read-out: EC50 wild-type parasites).
